From paper PMC9147192, “Small Molecule Arranged Thermal Proximity Coaggregation (smarTPCA)—A Novel Approach to Characterize Protein–Protein Interactions in Living Cells by Similar Isothermal Dose–Responses” (International Journal of Molecular Sciences, 2022) come the findings set out here.

The target of this assay is T1, UBE2O (Homo sapiens, UniProt Q9C0C9).
T1 construct: endogenous in cells; host or cells: HL-60 (ATCC CCL-240)
T1 sequence (Q9C0C9 1-1292): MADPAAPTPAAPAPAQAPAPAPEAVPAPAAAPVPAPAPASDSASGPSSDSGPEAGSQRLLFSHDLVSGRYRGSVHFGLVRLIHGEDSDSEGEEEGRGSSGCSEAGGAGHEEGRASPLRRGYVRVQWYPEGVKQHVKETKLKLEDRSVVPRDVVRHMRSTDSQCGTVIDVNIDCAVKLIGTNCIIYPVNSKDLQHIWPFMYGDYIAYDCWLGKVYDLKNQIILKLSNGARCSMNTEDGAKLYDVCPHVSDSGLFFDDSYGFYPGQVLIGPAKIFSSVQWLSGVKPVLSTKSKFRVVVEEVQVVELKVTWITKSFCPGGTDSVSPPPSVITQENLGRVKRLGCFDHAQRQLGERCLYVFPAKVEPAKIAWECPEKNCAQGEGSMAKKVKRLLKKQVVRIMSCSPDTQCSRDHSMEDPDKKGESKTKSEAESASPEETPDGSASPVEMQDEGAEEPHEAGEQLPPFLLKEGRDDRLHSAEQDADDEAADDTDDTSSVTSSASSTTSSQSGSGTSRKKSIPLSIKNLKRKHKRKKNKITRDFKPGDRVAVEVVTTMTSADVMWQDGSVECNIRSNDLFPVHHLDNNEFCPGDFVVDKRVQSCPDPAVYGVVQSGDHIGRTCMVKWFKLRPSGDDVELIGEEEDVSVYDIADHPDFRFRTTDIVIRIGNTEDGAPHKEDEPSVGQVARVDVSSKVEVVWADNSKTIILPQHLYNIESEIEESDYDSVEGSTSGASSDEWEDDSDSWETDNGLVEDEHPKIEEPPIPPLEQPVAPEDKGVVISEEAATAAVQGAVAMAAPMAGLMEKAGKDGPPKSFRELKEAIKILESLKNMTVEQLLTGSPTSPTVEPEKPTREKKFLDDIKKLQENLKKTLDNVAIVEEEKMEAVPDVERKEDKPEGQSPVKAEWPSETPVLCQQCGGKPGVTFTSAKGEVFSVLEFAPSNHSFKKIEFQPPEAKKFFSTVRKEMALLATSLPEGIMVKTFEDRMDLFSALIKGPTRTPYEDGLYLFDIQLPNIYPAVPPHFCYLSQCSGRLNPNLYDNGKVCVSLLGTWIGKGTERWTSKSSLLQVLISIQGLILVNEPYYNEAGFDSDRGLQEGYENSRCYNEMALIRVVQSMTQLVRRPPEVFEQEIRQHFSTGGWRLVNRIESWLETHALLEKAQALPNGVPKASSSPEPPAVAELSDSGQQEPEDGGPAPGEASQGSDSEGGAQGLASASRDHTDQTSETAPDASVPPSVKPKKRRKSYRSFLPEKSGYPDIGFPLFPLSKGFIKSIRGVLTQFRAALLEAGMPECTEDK
The assay can be described thus: TPP-CCR in living HL-60 cells. Format: cell-based.

Molecules are shown by their SMILES.

One may read the Hill slope as a measure of the steepness of the concentration-response curve. Turning to `Cc1cnc(Nc2ccc(F)cc2Cl)nc1-c1c[nH]c(C(=O)N[C@H](CO)c2cccc(Cl)c2)c1` [ERK 11e], the Hill slope (TPP-CCR, living cells, UBE2O) is given as 0.37. Moreover, under “living HL-60 cells, […] °C, TMT-MS”, the “Hill slope (UBE2O)” value is listed as 0.37. In addition, the EC50 (living HL-60 cells, […] °C, TMT-MS, read-out: pEC50 (UBE2O) (converted)) was 186 nM.
